The source of these data is patent US12296006B2, “Anti-LY6H antibodies and antibody drug conjugates” (Bluefin BioMedicine, Inc., priority 2017, dated 2025).

The test system of the assay is DMS79 cells. The assay can be described thus: In vitro growth inhibition and isobologram analysis (CellTiter Glo): DMS79. Type of assay: cell-based, human. The settings on record: 5 days, read-out: IC50 (growth), DMS79, alone. Here is the method:
SCLC cells were seeded onto 96 well plates at 3000-5,000 cells/well on the day of treatment. To distinguish synergy from additivity of the combination of LY6H-PBD with Olaparib (selleckchem, Cat #S1060), etoposide (Cell Signaling Technology, Cat #2200S) or cisplatin (Sigma, Cat #P4394), for each combination, a specific isobologram was constructed. […] Concentrations ranging from 0.0001-10 ug/ml were used for 12G7-PBD, from 0.0001 to 100 uM for olaparib, cisplatin, and etoposide. Cell viability was measured 5 days later by CellTiter Glo® Luminescent Cell viability Assay™ (Promega, Madison, WI) according to manufacturer's instructions. Each IC50 was graphically derived from the growth curve graphed by Prism™ showing percent survival vs log drug concentrations.
The 50% growth-inhibitory activity of the drug combinations was measured after 5 days of treatment. The line of additivity for the isobologram was constructed by interpolating the two points corresponding to the IC50 of the two drugs alone. Graphically, synergy, additivity, and antagonism are indicated by a point plotted below, on, or above the line of additivity, respectively.
Background: ATP-based viability assays read luminescence as a measure of living cells.

Like-named read-outs stand apart in the source and are kept apart here.

As to `COc1cc([C@@H]2c3cc4c(cc3[C@@H](O[C@@H]3O[C@@H]5CO[C@@H](C)O[C@H]5[C@H](O)[C@H]3O)[C@H]3COC(=O)[C@H]23)OCO4)cc(OC)c1O` [etoposide], the concentration for half-maximal inhibition (IC50) (commonly the midpoint of a concentration-inhibition curve) (Homo sapiens, DMS-79, 120 h) came out at 290 nM. With `N.N.[Cl][Pt][Cl]` [cisplatin], the IC50 came out at 310 nM.

Consider `O=C(c1cc(Cc2n[nH]c(=O)c3ccccc23)ccc1F)N1CCN(C(=O)C2CC2)CC1` [olaparib], for which the IC50 (Homo sapiens, DMS-79, 120 h) amounted to 4070 nM.
